Assay results taken from patent US20260191786A1, “SOLID DOSAGE FORMS WITH HIGH ACTIVE AGENT LOADING” (Lonza Sales AG, priority 2018, published 2026).
Values after ≈ are worked out from the molar mass of the structure shown. Read-outs that look alike come from different tables or passages of the source.

What was measured:
Type in all cases: physicochemical
[1] = pKa (base) of the active agent
[2] = Log P of the active agent
Description: Log P: The Log P value of an active agent is defined as the base 10 logarithm of the ratio of (1) the active agent concentration in an octanol phase to (2) the active agent concentration in a water phase when the two phases are in equilibrium with each other, is a widely accepted measure of lipophilicity. The Log P value may be measured experimentally or calculated using methods known in the art. The Log P value may be estimated experimentally by determining the ratio of the drug solubility in octanol to the drug solubility in water. When using a calculated value for the Log P value, the highest value calculated using any generally accepted method for calculating Log P is used.

[3] = Crystalline and amorphous solubility of the active agent in SIF / gastric buffer

| Compound | pKa (base) [1] | Log P [2] | pKa [1] | solubility ([3]; 0.5% SIF (simulated intestinal fluid), fassgf or other biorelevant, amorphous, 0.5% SIF, read-out: amorphous solubility in 0.5% SIF) [µg/mL] | solubility ([3]; gastric buffer (GB), simulated gastric fluid, thermodynamic from solid, crystalline, gastric buffer, read-out: crystalline solubility in gastric buffer (GB)) [µg/mL] |
| --- | --- | --- | --- | --- | --- |
| Posaconazole | 4.5 | 4.5 |  |  |  |
| C#Cc1cccc(Nc2ncnc3cc(OCCOC)c(OCCOC)cc23)c1 [Erlotinib] |  | 2.8 | 5.3 | ~380 (≈ 966 µM) | 182 (≈ 463 µM) |
